Here are results for 13 substances from patent US20110257251A1, “TELOMERASE INHIBITORS AND METHODS OF USE THEREOF” (PRESIDENTS AND FELLOWS OF HARVARD COLLEGE, priority 2008, published 2011).

As a reminder, the IC50 is the midpoint of a concentration-inhibition curve.

The test system of one data set is full-length hTR. Description: Fluorescence polarization binding to full-length hTR. The arrangement: species or system human. As to conditions: for affinity for full-length hTR (in words): FP; for Kd: full-length hTR construct, SEQ ID NO: 1 variants, read-out: Kp from FP. The source says:
To assess and quantify the ability of the RIPtide hits from microarray screening to bind the target RNA in solution, a panel of RIPtides representing variations on the consensus sequences of top hits within each cluster was selected. These RIPtides were synthesized with a 3-carboxyfluorescein (FAM) label attached to the 3′-end, the same as had been attached to the surface of the microarray. Fluorescence polarization (FP) was then used to measure quantitatively the equilibrium dissociation constant (Kd) values of the FAM-labeled RIPtides, using the same folded target RNAs and buffer system as had been employed in the microarray screen.
It is possible, without wishing to be limited by a theory, that RIPtide binding sites present or available in truncated forms of hTR may not be present or available in full-length hTR. Five RIPtides were therefore selected that had been validated for binding PKWT-1 in solution, and their binding affinity to full-length hTR was measured using FP. […] Were the J2b/3 loop involved in tertiary interactions in hTR, RIPtide binding might have been lost, and therefore it was surmised that the loop remains relatively unengaged in such interactions when present in naked hTR.
The remainder of the RIPtide hits from primary microarray screens of PK123 and PK159 in solution were not validated, but instead validation using full-length hTR was analyzed. Representative examples from each of the clusters were selected (FIG. 4D) and the binding affinity of these RIPtides for full-length hTR was quantified (FIG. 6A). In this way, RIPtides from clusters III, IV and V that bind full-length hTR were identified. Taken together, the collection of hTR-validated RIPtides maps out a series of sites on the template/pseudoknot that are especially conducive to targeting by a 2′-O-methyl polyribonucleotide; with each site corresponding to a cluster of sequence-complementary RIPtides (FIG. 6B, shaded according to sequence in FIG. 6A). Specifically, these hyper-targetable regions are the J2b/3 loop and P3 stem (Cluster II), the J2a/2b bulge through part of the P2a stem (Cluster III), the J2a/3 loop (Cluster IV), and the Template region (Cluster V).
FAM (6-carboxyfluorescein)-labeled oligonucleotides were synthesized on a 3′-(6-Fluorescein) CPG support (Glen Research) using a MerMade 12 (BioAutomation) DNA synthesizer, purified with Poly Pak-II (Glen Research) cartridges, and compositionally verified by MALDI-TOF MS. Unlabeled full length hTR was prepared by in vitro transcription in the presence of T7 RNA polymerase under the conditions described earlier for RIPtide screening, but without aminoallyl-UTP addition. After DNase I treatment and ethanol precipitation, hTR was purified using the RNeasy Midi kit (Qiagen). Unlabeled PKWT and PKWT-1 were purchased from Dharmacon, and were PAGE-purified and desalted. FAM-labeled RIPtides (5 nM) were titrated with increasing concentrations of folded RNA (300 pM-3 μM, typically). Solutions containing RIPtide and RNA were incubated at 37° C. for 2 h, after which fluorescence polarization was recorded at room temperature using a SpectraMax M5 (Molecular Devices) plate reader. Polarization (expressed in millipolarization units) was monitored at […] (cutoff 515 nm). […] Dissociation constants were determined using Kaleidagraph 3.5 (Synergy Software). […]
(In general: Fluorescence polarisation rises when a labelled molecule tumbles more slowly, as on binding a larger partner.)

Data set [1] relates to telomerase ribonucleoprotein complex. Description: TRAP assay in cell extracts (HeLa, DU145, HEK293). Type of data set: biochemical, human. As to conditions: for IC50 in TRAP (in words): cell extracts (HeLa, DU145, HEK293). An excerpt: Having discovered a panel of RIPtides that bind four different regions on the naked RNA component of telomerase, it was next determined whether these molecules were capable of inhibiting the activity of the telomerase ribonucleoprotein complex in an in vitro setting. The Telomeric Repeat Amplification Protocol (TRAP) assay (Kim, N. W. et al., Science 266, 2011-2015 (1994)) was therefore employed. The TRAP assay is a PCR-based protocol that has found widespread use in determining telomerase activity in human cell extracts and also in evaluating the in vitro potency of telomerase inhibitors. Using a version of the TRAP assay (Cy5-TRAP) that utilizes fluorescence detection (Herbert, B.-S. et al., Nat. Protocols 1, 1583-1590 (2006)). IC50 values for several RIPtides were determined using cell extracts from two human tumor cell lines (HeLa and DU145) and an immortalized embryonic cell line (HEK293). Initially, a small library of RIPtides representing several clusters identified in the microarray screen was screened and validated by FP experiments on hTR, using telomerase activity present in HeLa cell extracts. The majority of these were 8-mers, but some 7-mers and 6-mers were also tested; all were fully complementary to the target hTR sequence with Kd's for hTR below 300 nM. Several phosphorothioate variations of the initial library were additionally tested, incorporating phosphorothioate linkages either at the two terminal positions of the RIPtide or at every position.
Inhibition of telomerase activity in vitro was determined using TRAP, a PCR-based assay for telomerase activity in cell extracts (B.-S. Herbert, Nat. Protocols, 1, 1583-1590 (2006)). Unlabeled oligonucleotide sequences found to bind by FP were pre-incubated with cell extracts (HeLa, DU 145, and 293), and activity was measured by TRAP.
RIPtides were synthesized, purified with PolyPak-II C18 reverse phase cartridges, and constitutionally verified by MALDI-TOF MS. Telomerase-positive cells were either purchased from ATCC (DU145 and HEK293) or provided in the Chemicon TRAP kit (HeLa). Cell extracts were prepared from cell pellets by detergent lysis with 1×CHAPS lysis buffer (Chemicon). RIPtides were incubated with cell extract for 1 h at 37° C. prior to the TRAP assays. Assays were performed following a protocol that uses fluorescence as a quantitation system, as previously described by Herbert et al. (Nat. Protocols 1, 1583-1590 (2006)). Briefly, extension of a fluorescent artificial substrate by telomerase was carried out for 30 minutes at 30° C., followed by amplification with 30 PCR cycles ([…] 30 s, 59° C. 30 s, 72° C. 1 min). Telomerase extension products were separated on 10% native PAGE gels, and bands were visualized by fluorescence imaging and quantified using ImageQuant™ (GE Healthcare). Concentrations of RIPtides ranged from 0.6 nM to 60 μM, and for the initial screening, experiments were performed in duplicate using HeLa cell extracts. For active RIPtides, experiments were repeated using DU145 (prostate cancer) and HEK293 cell extracts. Several controls were included in the design of the experiments: a positive control (untreated cell lysate), negative controls (buffer only, heat inactivated and RNase treated cell extracts), and PCR amplification control (60 μM of RIPtide added after telomerase elongation and before PCR step). For cell-based TRAP assays, DU145 cells were transfected with 0.2% Lipofectamine™ 2000 (Invitrogen) and 165 nM RIPtide for a period of 24 h. Cells were harvested, counted, lysed with 1×CHAPS lysis buffer and normalized by total protein concentration as determined by the Bradford assay. Assays were performed in triplicate as described above.
The inhibitory potential of the RIPtides was initially assessed in HeLa cell extracts, in duplicate experiments, using a 600 pM-60 μM concentration range. Experiments with selected RIPtides were repeated for a concentration range of 0.6 pM-60 μM. […]

Data set [2] relates to telomerase activity in DU145 cells. The data set is described as follows: Cell-based TRAP assay in transfected DU145 cells. The arrangement: species or system human. Conditions: 165 nM RIPtide, 24 h, Lipofectamine 2000, then TRAP. How it is done:
Having established that the modified RIPtides retain activity in vitro, several of these were tested in cell-based assays. DU145 prostate cancer cells were treated with 165 nM RIPtide for 24 h. The cells were subsequently lysed and telomerase activity was assessed by the TRAP assay (FIG. 8D). As a positive control, a previously reported 13-mer 2′-O-methyl oligonucleotide targeting the template region of hTR was employed (Pitts, A. E., Corey, D. R., Proc. Natl. Acad. Sci. USA 95, 11549-111554 (1998)). Lipofectamine™ was used to ensure optimal delivery, and it remains to be established whether cationic lipid delivery is necessary for 10-mers. In particular, there is evidence that relatively short oligonucleotides containing phosphorothioate linkages targeting telomerase show optimal cellular uptake properties (Chen, Z., et al., J. Med. Chem. 45, 5423-5425 (2002)).
RIPtides were synthesized, purified with PolyPak-II C18 reverse phase cartridges, and constitutionally verified by MALDI-TOF MS. Telomerase-positive cells were either purchased from ATCC (DU145 and HEK293) or provided in the Chemicon TRAP kit (HeLa). Cell extracts were prepared from cell pellets by detergent lysis with 1×CHAPS lysis buffer (Chemicon). RIPtides were incubated with cell extract for 1 h at 37° C. prior to the TRAP assays. Assays were performed following a protocol that uses fluorescence as a quantitation system, as previously described by Herbert et al. (Nat. Protocols 1, 1583-1590 (2006)). Briefly, extension of a fluorescent artificial substrate by telomerase was carried out for 30 minutes at 30° C., followed by amplification with 30 PCR cycles ([…] 30 s, 59° C. 30 s, 72° C. 1 min). Telomerase extension products were separated on 10% native PAGE gels, and bands were visualized by fluorescence imaging and quantified using ImageQuant™ (GE Healthcare). […] Cells were harvested, counted, lysed with 1×CHAPS lysis buffer and normalized by total protein concentration as determined by the Bradford assay. […]

Another data set deals with mutated full length hTR. Description: Fluorescence polarization compensatory mutation study with mutated full-length hTR. Conditions: mutant RIPtide and mutant hTR. The data set is classed as binding, human. An excerpt:
Without wishing to be limited or constrained by theory, the RIPtide binding sites on hTR had been inferred assuming Watson-Crick complementarity between the RIPtide and target. To verify experimentally that the RIPtides were actually recognizing the predicted regions on hTR, tandem point mutations were introduced into the central portion of the RIPtides and compensatory sequence changes into hTR. The binding behavior of the “wild type” and “mutant” RIPtides to wild-type and compensatory mutant hTR targets was analyzed by FP (FIG. 7). Four different hTR transcripts were generated in which two consecutive nucleotides at the central position of each cluster, the expected target site (FIG. 6A, bases indicated in bold), were mutated to their Watson-Crick complementary bases (G→C, C→G and U→A). […] Similarly, binding was abolished or reduced when mutated RIPtides were incubated with wild-type hTR (FIG. 7C). […] Perhaps this lack of restoration in certain cases reflects a local change in the availability or in the folding energy of the single-stranded elements as a result of the mutation. Taken together, this mutational specificity supports the notion, without wishing to be bound by theory, that the RIPtides indeed target telomerase at the corresponding sequence-complementary sites.
For mapping of hTR-RIPtide binding sites, site-directed mutagenesis on the pRc/CMV plasmid (Collins lab, UC Berkeley) was performed using a QuickChange-XL mutagenesis kit (Stratagene) and confirmed by sequencing. Full-length hTR transcripts incorporating two consecutive base mutations (to their Watson-Crick complementary bases) were generated for fluorescence polarization studies.

Setting [3] is: cell extracts (HeLa, DU 145, and 293), SEQ ID NO: 1 variants, read-out: IC50 from TRAP.

Where two headings read alike, the source gives them in different places. Strand notation (5' to 3'): a small letter for the sugar, then the base; units joined by * are phosphorothioate-linked, units joined directly phosphodiester-linked; [ ] holds rarer units or linkages, { } end groups; capitals alone tell only the bases. m = 2'-O-methyl

Take “5′-GCCUCCAG-3′ (chemistry not given here) [SEQ ID NO: 1]”: the “affinity for full-length hTR (in words)” value in the data set on full-length hTR was “confirmed”. For the same substance, the “telomerase inhibition in TRAP assays (in words)” value in data set [1] (cell extracts) is “showing inhibition of activity”. Further, the “IC50 in TRAP (in words)” value in data set [1] is listed as “micromolar range”.

For “5′-GGUGGAAGGC-3′ (2'-O-methyl sugars, as printed in the source, key not given here) [IV-3]”, the “IC50 in TRAP (in words)” value in data set [1] is “low nanomolar range”. In addition, in data set [2], the “telomerase inhibition in cultured cells” value is reported as “no significant telomerase inhibition”.

Turning to “AGUUAGG (all 2'-O-methyl, backbone not given here) [V-3]”, the “restoration of binding with compensatory mutations in both RIPtide and hTR” value (“restoration of binding” for short) in the data set with mutated full length hTR was “restoration was observed”.

In the case of “CAGCGAGA (all 2'-O-methyl, backbone not given here) [II-1]”, the “restoration of binding” value in the data set on mutated full length hTR was “Restoration was not observed”.

As to “G*C*C*U*C*C*A*G (mG*mC*mC*mU*mC*mC*mA*mG) [G*C*C*U*C*C*A*G LNA]”, in data set [1] (setting [3]), the half-inhibitory concentration (IC50) was around 6000 nM.

As for “G*CCUCCA*G (mG*mCmCmUmCmCmA*mG; further chemistry not given here)”, the Kd in the data set on full-length hTR was found to be 37.3 ± 15.2 nM.

Consider G*CCUCCAG (mG*mCmCmUmCmCmAmG), for which the Kd in the data set with full-length hTR was found to be 8.8 ± 2.5 nM. For the same substance, the 50% inhibitory concentration (IC50) in data set [1] (setting [3]) was around 9000 nM.

For the substance GCCUCCA*G (mGmCmCmUmCmCmA*mG), the Kd in the data set with full-length hTR worked out at 8.9 ± 5.6 nM. Also, the IC50 in data set [1] (setting [3]) was around 16000 nM.

Regarding “GGUGCCAGGC (all 2'-O-methyl, backbone not given here; further chemistry not fully specified) [IV-3 mismatch, reference compound]”, in data set [2], the “telomerase inhibition in cultured cells” value was “abolished inhibition”.

As for “GGUGGAAGGC (as printed in the source, key not given here)”, the IC50 in data set [1] (cell extracts, in vitro, read-out: IC50, telomerase inhibition in TRAP) is around 1 nM.

For the substance “GGUGGAAGGC (as printed in the source, key not given here) [IV-4]”, in data set [1], the “IC50 in TRAP (in words)” value is recorded as “low nanomolar range”.

As for “GGUGGAAGGC (as printed in the source, key not given here) [IV-5]”, the “telomerase inhibition in cultured cells” value in data set [2] was “marked inhibition”.

Regarding “GUCAGCGA (all 2'-O-methyl, backbone not given here) [II-2]”, the “restoration of binding” value in the data set with mutated full length hTR is “restoration was observed”. The “affinity for full-length hTR (in words)” value with full-length hTR is reported as “improvement in affinity”.
